Laboratory results: PubChem BioAssay (NCI)
Several values for one entry are separate records, joined by “and”; a condition that tells them apart may be missing. Identical values can stand only once.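 1) Cells in 96-well plates. 2) Compound, 48 h, 5 concentrations. 3) Linear interpolation between surrounding doses. 4) Unreached endpoint = highest concentration. GI50 is the concentration that inhibits growth by half. TGI is the concentration that stops growth completely.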

Key:
Experiment in all cases: growth of human tumour cells (NCI), 48 h
[1] = tested on: ACHN renal
[2] = tested on: K-562 leukemia
[3] = tested on: MALME-3M melanoma
[4] = tested on: MOLT-4 leukemia
[5] = tested on: NCI-H522 lung
[6] = tested on: OVCAR-4 ovarian
[7] = tested on: RXF 393 renal
[8] = tested on: SF-539 CNS
[9] = tested on: SK-MEL-28 melanoma
[10] = tested on: A498 renal

Row | SMILES | TGI [1] [µM] | TGI [2] | TGI [3] | TGI [4] [µM] | TGI [5] [µM] | TGI [6] [µM] | TGI [7] [µM] | TGI [8] [µM] | TGI [9] [µM] | GI50 [10] [µM] | TGI [10] [µM] | GI50 [1] [µM] | GI50 [4] | GI50 [5] | GI50 [6] [µM] | GI50 [7] | GI50 [8] | GI50 [2] | GI50 [3] [µM] | GI50 [9]
1 | CC(O)c1ccc(C(O)/C(=N\NC(=O)c2ccncc2)c2nc3ccc([N+](=O)[O-])cc3[nH]c2=O)cc1 (stereo not given) | > 100 | > 100 µM | > 100 µM | > 100 | > 100 | > 100 | > 100 | > 100 | > 100 | – | – | – | – | – | – | – | – | – | – | –
2 | COc1ccc2c(c1)CC1N(C)CCC13CCCCC23 (stereo not given) | > 100 | > 100 µM | > 100 µM | > 100 | > 100 | > 100 | > 100 | – | > 100 | – | – | – | – | – | – | – | – | – | – | –
3 | COc1cc2oc(-c3ccc(O)cc3)cc(=O)c2c(OC)c1O | > 100 | > 100 µM | > 100 µM | > 100 | > 100 | > 100 | > 100 | > 100 | > 100 | – | – | – | – | – | – | – | – | – | – | –
4 | O=C(O)c1ccccc1C1c2ccc(Cl)cc2Oc2cc(Cl)ccc21 | > 100 | > 100 µM | > 100 µM | > 100 | > 100 | > 100 | > 100 | > 100 | > 100 | – | – | – | – | – | – | – | – | – | – | –
5 | COc1cc(OC)c(/C=C/C(=O)c2c(O)cc(OC)c(C3CCN(C)CC3)c2OC)c(OC)c1 | 2.98 | – | – | 3.61 | 3.31 | 3 | 3.3 | 3.12 | – | 1.6 | 3.02 | 1.58 | 1.63 µM | 1.86 µM | 1.4 | 1.76 µM | 1.69 µM | – | – | –
6 | COC(=O)[C@H](C)[C@@H]1CC[C@](C)(CCC2=C(C)CCCC2(C)C)OO1 | > 25 | > 25 µM | > 25 µM | > 25 | > 25 | > 25 | > 25 | > 25 | > 25 | – | – | – | – | – | – | – | – | – | – | –
7 | COC1C(C)OC(OC2CC(C)(O)Cc3cc4c(c(O)c32)C(=O)c2c(O)cc3c(c2C4=O)OC2OC3(C)C(O)C(N(C)C)C2O)C(OC)C1(C)OC (stereo not given) | – | 1.94 µM and 1.51 µM | 0.383 µM and 0.0944 µM | – | – | 1.61 | – | – | – | – | – | 0.216 | 0.0366 µM and 0.02 µM | 0.093 µM and 0.0186 µM | – | 0.0548 µM and 0.0191 µM | 0.038 µM and 0.0171 µM | 0.0272 µM and 0.0636 µM | 0.0178 | 0.0687 µM and 0.0334 µM
8 | Cc1ccc(S(=O)(=O)OC2CSSCC2OS(=O)(=O)c2ccc(C)cc2)cc1 (stereo not given) | 28.9 | 47.6 µM | 34.3 µM | 7.61 | 22.8 | 23.3 | 37.7 | 22.8 | 30.3 | – | – | – | – | – | – | – | – | – | – | –
9 | C1=CC(=NN=P(c2ccccc2)(c2ccccc2)c2ccccc2)C=C1 | > 100 | > 100 µM | > 100 µM | > 100 | > 100 | > 100 | > 100 | – | > 100 | – | – | – | – | – | – | – | – | – | – | –
10 | O=[N+]([O-])c1cccc([I+]c2ccccc2)c1 | > 100 | 32.1 µM | – | 39 | 23.5 | 36 | – | 24.3 | 23.2 | 10.4 | 28.4 | 19.6 | 3.4 µM | 11.3 µM | 7.13 | – | 10.8 µM | 3.26 µM | – | 10.5 µM
11 | C=CNC(=S)n1nc(-c2ccccc2NC(=O)C(F)(F)F)c(=O)n(C(=S)NC=C)c1=S | > 100 | > 100 µM | > 100 µM | > 100 | 60.5 | 19.6 | > 100 | > 1 | > 100 | – | – | – | – | – | – | – | – | – | – | –
12 | Cn1c2c(c3ccccc31)CCN(CCCN1CCN(c3ccccc3)CC1)C2=O | 44.7 | 38.3 µM | – | 36.7 | 30.9 | – | 32.6 | 31.7 | 36.7 | – | 32.8 | – | – | – | – | – | – | – | – | –
13 | C=CCCCC(O)c1ccc(C(O)c2cnc3ccccc3c2)o1 (stereo not given) | 61.6 | 52.6 µM | – | 82 | > 100 | > 100 | > 100 | 82.5 | > 100 | – | – | 25.4 | 32.1 µM | 28.4 µM | > 100 | 83.2 µM | 27.9 µM | 25 µM | – | 69.1 µM
14 | COc1cc(/C=C2\CC3C4CCC5=CC(=O)CC[C@]5(C)C4CC[C@]3(C)C2=O)ccc1OCCN1CCCCC1 (stereo not given in full) | 13.1 | 16.6 µM | – | 75.2 | > 100 | 92.2 | 10.4 | – | 6.13 | 1.9 | 12.1 | 3.84 | 2.73 µM | 8.95 µM | 8.35 | 2.58 µM | – | 2.8 µM | – | 2.59 µM
15 | Cc1cc(C)c(C(=O)/C(=C/c2ccccc2)c2ccccc2)c(C)c1 | > 100 | > 100 µM | > 100 µM | > 100 | 77.2 | > 100 | > 100 | > 100 | > 100 | – | – | – | – | – | – | – | – | – | – | –
16 | O=c1[nH]c(-c2ccc([N+](=O)[O-])cc2)nc2ccc(Cl)cc12 | > 100 | 38.8 µM | > 100 µM | > 100 | – | – | > 100 | > 100 | > 100 | – | – | – | – | – | – | – | – | – | – | –
17 | C=C1CCC2(C(C)=O)COC1(C)O2 (stereo not given) | > 100 | > 100 µM | > 100 µM | > 100 | > 10 | – | > 10 | > 100 | > 100 | – | – | – | – | – | – | – | – | – | – | –
